Values joined by “and” are separate entries in the source; they are usually repeats but may differ in a detail not shown here. Equal values may be shown once.
What was measured:
[1] = tested on: ZAP70 in ZAP70+ CLL B cells; experiment: ZAP70 protein expression by indirect immunofluorescence and FACS analysis; type: cell-based, human; settings: ZAP70+ CLL B cells of one patient, 24 hours at 37° C.
Description: Levels of ZAP70 protein expression were measured by indirect immunofluorescence of permeabilized cells with specific anti-ZAP70 antibodies and FACS analysis.

[2] = cited from earlier work
[3] = tested on: ZAP70 in CLL B cells (CD3−, ZAP70+); experiment: Two-color flow cytometry of ZAP70 expression in white blood cells of a ZAP70+ CLL patient: CLL B cells; type: cell-based, human; settings: 300 nM, 24 hours at 37° C., untreated 85%
Description: (§1) The upper right quadrant were normal T-cells (CD3+, ZAP70+) the lower right quadrant were (CD3−, ZAP70+); the upper left quadrant is CD3+, ZAP70−; and the lower left quadrant is CD3−, ZAP70−.
(§2) (right panel). Levels of ZAP70 protein expression were measured by two color indirect immunofluorescence with specific anti-CD3 antibodies conjugated to phycoerytirin and anti-ZAP70 antibodies conjugated to Alexa-488 dye and analyzed by flow cytometry. CD3 is a specific marker of T cells. […] As shown in the untreated cells (left panel), approximately 5% of the cells were normal T-cells (CD3+, ZAP70+, upper right quadrant) and ˜85% of the cells were ZAP70+ CLL B cells (CD3−, ZAP70+, lower right quadrant). […] This is important because B-CLL patients are chronically immunosuppressed by their disease, so avoidance of effects on normal T-cell function performed by ZAP70 is clearly beneficial.
(§3) The samples were than prepared for flow cytometry analysis by a method described in Rassebti et al. supra. […] Levels of ZAP70 protein expression were measured by flow cytometry (FACSCalibur, BD Biosciences) and Flow-Jo software, version 2.7.4 (Tree Star).

ZAP70− CLL B cells = experiment: Viability (100%-% apoptotic cells) by DiOC6 and propidium iodide staining; settings: Homo sapiens, B-cell, 48 h, read-out: average % viability
[4] = tested on: ZAP70 in normal T-cells (CD3+, ZAP70+); experiment: Two-color flow cytometry of ZAP70 expression in white blood cells of a ZAP70+ CLL patient: normal T-cells; type: cell-based, human; settings: 300 nM, 24 hours at 37° C., untreated 4.5%
Description: as §1, §2, §3

[5] = Solvent stability of low melt form: slurrying in H2O:EtOH (90:10); type: physicochemical; settings: slurry in H2O:EtOH (90:10)
Description: 17-AAG may be prepared from geldanamycin by reacting with allyamine in dry THF under a nitrogen atmosphere. The crude product may be purified by slurrying in H2O:EtOH (90:10), and the washed crystals obtained have a melting point of 206-212° C. by capillary melting point technique. […] The two 17-AAG products are designated as the low melt form and high melt form.
MP=147-175° C. ^1H NMR and HPLC are consistent with the desired product.

Row | Compound | degradation of ZAP70 [1] | maximum tolerated dose (MTD) ([2]; daily 1-hour infusion for 5 days every three weeks) | clearance ([2]; human, in vivo) | terminal half-life ([2]; human, in vivo) | Cmax ([2]; read-out: Plasma Cmax, human, in vivo) | % positive cells (ZAP70) after treatment [3] | viability at 0.1 µM (ZAP70− CLL B cells) | % positive cells (ZAP70) after treatment [4] | average % viability (ZAP70+ CLL B cells; 0.1 µM) | time to reach 50% cell mortality (ZAP70+ CLL B cells; 100 nM, 37° C., cells of one ZAP70+ patient) | IC50 (ZAP70+ CLL B cells; read-out: 50% inhibitory concentration (IC50), cell killing, 48 hours at 37° C., cells of one ZAP70+ patient) | stability of the low melt form (conversion to high melt form) [5]
1 | C=CCNC1=C2CC(C)CC(OC)C(O)C(C)/C=C(\C)C(OC(N)=O)C(OC)/C=C\C=C(/C)C(=O)NC(=CC1=O)C2=O (stereo not drawn) [Compound 17-AAG, 17-allylamino-17-demethoxygeldanamycin] | dose-dependently induced degradation of ZAP70 | 40 mg/m^2 | 41.0 ± 13.5 L/h | 2.5 ± 0.5 h | 1860 nM and 3170 nM | 34% | 93% | 4.2% | 45.74+/−3.177% | approximately 48 hours | ~80 nM | 
2 | C=CCNC1=C2C[C@@H](C)C[C@H](OC)[C@H](O)[C@@H](C)/C=C(\C)[C@H](OC(N)=O)[C@@H](OC)/C=C\C=C(/C)C(=O)NC(=CC1=O)C2=O [low melt form, 17-allylamino-17-demethoxygeldanamycin] |  |  |  |  |  |  |  |  |  |  |  | no conversion to the high melt form was observed

From US20080280878A1, “Methods and Compositions for Treating Chronic Lymphocytic Leukemia” (priority 2004, published 2008)
